Reference: paper PMC5862592, “CDK8/19 inhibition induces premature G1/S transition and ATR-dependent cell death in prostate cancer cells” (Oncotarget, 2018)
Where two headings read alike, the source gives them in different places.

Key:
Assay in all cases: biochemical
Parameters in all cases: KINOMEscan active site-directed competition binding assay (DiscoveRx), 456 kinases, per cent of control at 300 nM
Details in all cases: read-out: Percent of Control (%)
BIKE = molecular target: T1, BIKE (Homo sapiens, UniProt Q9NSY1)
T1 construct: gene BMP2K
Procedure, shortened: (§1)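 Each compound is tested at 300 nmol/L against a panel of 456 kinases. Interaction is quantified by competition for the kinase active site.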

CAMK2G = CAMK2G (Homo sapiens, UniProt Q13555)
Procedure, shortened: as §1

CDC2L1 = molecular target: T2, CDC2L1 (Homo sapiens, UniProt P21127)
T2 construct: gene CDK11B
Procedure, shortened: as §1

CDC2L2 = molecular target: T3, CDC2L2 (Homo sapiens, UniProt Q9UQ88)
T3 construct: gene CDK11A
Procedure, shortened: as §1

CDK7 = CDK7 (Homo sapiens, UniProt P50613)
Procedure, shortened: as §1

CDKL2 = CDKL2 (Homo sapiens, UniProt Q92772)
Procedure, shortened: as §1

CSNK1G1 = CSNK1G1 (Homo sapiens, UniProt Q9HCP0)
Procedure, shortened: as §1

CSNK1G2 = CSNK1G2 (Homo sapiens, UniProt P78368)
Procedure, shortened: as §1

EPHA3 = EPHA3 (Homo sapiens, UniProt P29320)
Procedure, shortened: as §1

ERK5 = molecular target: T4, ERK5 (Homo sapiens, UniProt Q13164)
T4 construct: gene MAPK7
Procedure, shortened: as §1

KIT(V559D) = KIT(V559D) (Homo sapiens, UniProt P10721, V559D)
Procedure, shortened: as §1

LZK = molecular target: T5, LZK (Homo sapiens, UniProt O43283)
T5 construct: gene MAP3K13
Procedure, shortened: as §1

MAK = MAK (Homo sapiens, UniProt P20794)
Procedure, shortened: as §1

MLK3 = molecular target: T6, MLK3 (Homo sapiens, UniProt Q16584)
T6 construct: gene MAP3K11
Procedure, shortened: as §1

PIK3C2B = PIK3C2B (Homo sapiens, UniProt O00750)
Procedure, shortened: as §1

PIK3CA(E542K) = PIK3CA(E542K) (Homo sapiens, UniProt P42336, E542K)
Procedure, shortened: as §1

PLK1 = PLK1 (Homo sapiens, UniProt P53350)
Procedure, shortened: as §1

PRKCE = PRKCE (Homo sapiens, UniProt Q02156)
Procedure, shortened: as §1

PRKG2 = PRKG2 (Homo sapiens, UniProt Q13237)
Procedure, shortened: as §1

SNARK = molecular target: T7, SNARK (Homo sapiens, UniProt Q9H093)
T7 construct: gene NUAK2
Procedure, shortened: as §1

TNNI3K = TNNI3K (Homo sapiens, UniProt Q59H18)
Procedure, shortened: as §1

ZAP70 = ZAP70 (Homo sapiens, UniProt P43403)
Procedure, shortened: as §1

Chain of PRKG2 (Q13237 whole entry): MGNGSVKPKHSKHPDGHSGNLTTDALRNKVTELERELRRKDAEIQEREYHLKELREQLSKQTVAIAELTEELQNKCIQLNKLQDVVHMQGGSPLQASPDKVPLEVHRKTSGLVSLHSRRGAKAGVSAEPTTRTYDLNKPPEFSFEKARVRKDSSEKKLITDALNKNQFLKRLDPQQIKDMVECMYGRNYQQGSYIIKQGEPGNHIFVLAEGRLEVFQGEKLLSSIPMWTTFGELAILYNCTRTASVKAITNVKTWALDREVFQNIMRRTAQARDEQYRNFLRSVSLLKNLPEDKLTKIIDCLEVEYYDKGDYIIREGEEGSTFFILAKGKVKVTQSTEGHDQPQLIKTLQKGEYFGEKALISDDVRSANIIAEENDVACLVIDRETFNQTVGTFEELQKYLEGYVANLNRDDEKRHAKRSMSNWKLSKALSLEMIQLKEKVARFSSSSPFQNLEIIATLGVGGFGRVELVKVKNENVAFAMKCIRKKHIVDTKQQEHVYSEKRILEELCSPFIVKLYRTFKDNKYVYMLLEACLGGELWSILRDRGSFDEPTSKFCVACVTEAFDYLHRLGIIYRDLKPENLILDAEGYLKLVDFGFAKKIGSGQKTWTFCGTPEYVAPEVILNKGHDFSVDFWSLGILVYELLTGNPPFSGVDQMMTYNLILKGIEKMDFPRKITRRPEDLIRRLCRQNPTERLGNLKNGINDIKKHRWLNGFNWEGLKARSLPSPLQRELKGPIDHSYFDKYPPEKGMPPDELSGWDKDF
Chain of CDKL2 (Q92772 whole entry): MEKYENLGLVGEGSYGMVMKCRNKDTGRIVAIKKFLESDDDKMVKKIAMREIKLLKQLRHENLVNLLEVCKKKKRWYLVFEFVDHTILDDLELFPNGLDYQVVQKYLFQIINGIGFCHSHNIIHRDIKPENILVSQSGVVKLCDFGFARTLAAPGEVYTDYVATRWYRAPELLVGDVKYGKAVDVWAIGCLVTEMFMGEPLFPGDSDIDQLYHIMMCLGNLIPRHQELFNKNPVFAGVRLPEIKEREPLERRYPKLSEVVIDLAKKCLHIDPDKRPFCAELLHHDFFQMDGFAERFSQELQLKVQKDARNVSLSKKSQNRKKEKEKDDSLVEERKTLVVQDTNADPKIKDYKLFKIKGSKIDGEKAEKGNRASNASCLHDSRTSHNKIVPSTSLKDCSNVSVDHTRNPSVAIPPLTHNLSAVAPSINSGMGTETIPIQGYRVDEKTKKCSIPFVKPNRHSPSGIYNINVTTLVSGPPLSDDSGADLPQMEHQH
Chain of PRKCE (Q02156 whole entry): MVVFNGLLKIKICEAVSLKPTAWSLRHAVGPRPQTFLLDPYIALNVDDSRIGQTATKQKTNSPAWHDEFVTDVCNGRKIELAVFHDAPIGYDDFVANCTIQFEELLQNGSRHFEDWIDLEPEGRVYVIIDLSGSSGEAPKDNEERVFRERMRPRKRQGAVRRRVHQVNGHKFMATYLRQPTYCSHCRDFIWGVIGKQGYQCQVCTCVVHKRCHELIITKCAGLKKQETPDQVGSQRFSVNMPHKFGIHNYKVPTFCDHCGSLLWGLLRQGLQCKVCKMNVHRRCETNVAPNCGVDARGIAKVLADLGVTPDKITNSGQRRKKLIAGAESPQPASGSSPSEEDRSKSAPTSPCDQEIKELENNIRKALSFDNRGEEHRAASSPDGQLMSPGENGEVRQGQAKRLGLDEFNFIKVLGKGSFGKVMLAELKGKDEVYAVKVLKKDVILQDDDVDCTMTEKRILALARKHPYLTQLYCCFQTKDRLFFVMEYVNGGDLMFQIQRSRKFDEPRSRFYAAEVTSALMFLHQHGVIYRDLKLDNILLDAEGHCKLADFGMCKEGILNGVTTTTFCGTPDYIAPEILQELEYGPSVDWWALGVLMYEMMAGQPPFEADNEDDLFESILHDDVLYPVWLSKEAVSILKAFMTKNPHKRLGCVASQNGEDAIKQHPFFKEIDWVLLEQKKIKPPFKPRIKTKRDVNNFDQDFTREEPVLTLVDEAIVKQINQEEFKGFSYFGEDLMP
T5 sequence (O43283 whole entry): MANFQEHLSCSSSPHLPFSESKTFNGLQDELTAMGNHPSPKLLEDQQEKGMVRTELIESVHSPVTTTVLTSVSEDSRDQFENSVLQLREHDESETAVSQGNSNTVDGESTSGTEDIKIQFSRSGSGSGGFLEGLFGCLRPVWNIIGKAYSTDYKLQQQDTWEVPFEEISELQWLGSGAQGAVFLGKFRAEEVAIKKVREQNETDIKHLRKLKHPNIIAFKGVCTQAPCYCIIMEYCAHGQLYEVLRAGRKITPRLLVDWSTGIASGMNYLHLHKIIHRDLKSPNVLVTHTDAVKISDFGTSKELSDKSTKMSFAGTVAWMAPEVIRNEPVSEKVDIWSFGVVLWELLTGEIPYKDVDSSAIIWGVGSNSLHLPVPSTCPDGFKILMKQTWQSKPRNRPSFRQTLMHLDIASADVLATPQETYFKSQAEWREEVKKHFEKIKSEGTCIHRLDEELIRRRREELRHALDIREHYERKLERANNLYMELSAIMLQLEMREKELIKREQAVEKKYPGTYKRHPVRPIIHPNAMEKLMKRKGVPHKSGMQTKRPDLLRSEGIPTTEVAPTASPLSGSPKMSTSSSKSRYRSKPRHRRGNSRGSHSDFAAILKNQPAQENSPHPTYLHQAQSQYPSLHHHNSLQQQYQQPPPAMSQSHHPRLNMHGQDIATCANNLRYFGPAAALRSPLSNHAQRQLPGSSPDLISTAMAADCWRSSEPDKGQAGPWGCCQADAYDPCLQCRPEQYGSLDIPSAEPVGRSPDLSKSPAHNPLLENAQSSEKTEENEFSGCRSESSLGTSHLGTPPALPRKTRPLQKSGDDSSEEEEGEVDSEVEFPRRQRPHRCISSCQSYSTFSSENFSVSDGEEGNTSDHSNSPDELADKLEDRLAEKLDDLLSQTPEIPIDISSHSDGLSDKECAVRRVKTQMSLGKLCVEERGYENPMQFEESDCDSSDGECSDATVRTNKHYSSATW
Chain of PIK3CA(E542K) (P42336 whole entry E542K): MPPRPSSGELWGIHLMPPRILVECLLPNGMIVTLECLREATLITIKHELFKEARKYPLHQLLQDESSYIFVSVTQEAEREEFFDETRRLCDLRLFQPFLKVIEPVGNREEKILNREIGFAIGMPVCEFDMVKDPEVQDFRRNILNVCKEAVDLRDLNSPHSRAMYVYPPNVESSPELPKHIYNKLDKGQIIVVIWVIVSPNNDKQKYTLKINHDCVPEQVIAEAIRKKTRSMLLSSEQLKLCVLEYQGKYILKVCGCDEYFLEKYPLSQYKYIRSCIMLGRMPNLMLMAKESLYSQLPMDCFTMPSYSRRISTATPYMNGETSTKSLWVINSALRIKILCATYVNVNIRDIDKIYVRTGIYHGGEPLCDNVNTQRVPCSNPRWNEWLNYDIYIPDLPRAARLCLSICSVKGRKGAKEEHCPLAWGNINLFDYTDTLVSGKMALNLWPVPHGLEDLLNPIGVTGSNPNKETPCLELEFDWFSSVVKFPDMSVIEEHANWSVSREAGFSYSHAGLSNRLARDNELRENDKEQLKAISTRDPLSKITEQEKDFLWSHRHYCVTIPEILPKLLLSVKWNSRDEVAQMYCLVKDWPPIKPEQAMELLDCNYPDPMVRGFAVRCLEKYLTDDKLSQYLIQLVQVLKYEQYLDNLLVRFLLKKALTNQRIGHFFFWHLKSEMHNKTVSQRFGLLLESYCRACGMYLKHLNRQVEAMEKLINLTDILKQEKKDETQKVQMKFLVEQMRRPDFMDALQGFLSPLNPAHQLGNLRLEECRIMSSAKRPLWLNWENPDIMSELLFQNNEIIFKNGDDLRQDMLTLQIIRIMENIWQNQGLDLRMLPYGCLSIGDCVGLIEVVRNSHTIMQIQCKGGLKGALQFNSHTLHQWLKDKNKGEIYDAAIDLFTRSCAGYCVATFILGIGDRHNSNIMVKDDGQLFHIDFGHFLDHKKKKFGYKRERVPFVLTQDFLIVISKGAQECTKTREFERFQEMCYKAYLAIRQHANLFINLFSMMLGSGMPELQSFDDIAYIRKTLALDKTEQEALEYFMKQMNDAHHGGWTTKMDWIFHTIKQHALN
Chain of CSNK1G2 (P78368 whole entry): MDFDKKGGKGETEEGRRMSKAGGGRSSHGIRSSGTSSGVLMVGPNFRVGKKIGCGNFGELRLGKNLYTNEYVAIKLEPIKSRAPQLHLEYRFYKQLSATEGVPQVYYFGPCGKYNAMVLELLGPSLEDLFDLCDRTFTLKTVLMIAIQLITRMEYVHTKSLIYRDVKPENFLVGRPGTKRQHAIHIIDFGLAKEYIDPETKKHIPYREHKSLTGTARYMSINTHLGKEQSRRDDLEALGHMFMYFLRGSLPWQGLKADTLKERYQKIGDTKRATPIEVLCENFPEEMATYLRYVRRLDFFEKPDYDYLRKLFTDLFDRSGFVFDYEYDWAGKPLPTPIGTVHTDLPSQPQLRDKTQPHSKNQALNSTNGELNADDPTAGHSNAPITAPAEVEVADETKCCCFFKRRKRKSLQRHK
Chain of CSNK1G1 (Q9HCP0 whole entry): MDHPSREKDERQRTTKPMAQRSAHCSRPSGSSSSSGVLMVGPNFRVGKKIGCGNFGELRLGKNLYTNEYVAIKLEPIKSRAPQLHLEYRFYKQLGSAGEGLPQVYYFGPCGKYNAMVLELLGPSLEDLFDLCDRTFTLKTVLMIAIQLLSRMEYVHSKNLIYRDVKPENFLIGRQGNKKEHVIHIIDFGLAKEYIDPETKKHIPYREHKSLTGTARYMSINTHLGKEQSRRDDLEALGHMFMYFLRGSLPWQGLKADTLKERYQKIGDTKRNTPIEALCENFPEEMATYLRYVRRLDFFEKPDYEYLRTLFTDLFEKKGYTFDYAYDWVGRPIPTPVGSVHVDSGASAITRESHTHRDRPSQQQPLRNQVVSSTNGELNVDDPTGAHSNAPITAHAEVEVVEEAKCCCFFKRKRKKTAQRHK

SMILES: Cc1ncccc1Oc1sc(C(N)=O)c2c1-c1c(cnn1C)CC2 [T-474, 1-methyl-8-((2-methylpyridin-3-yl)oxy)-4,5-dihydro-1H-thieno[3,4-g]indazole-6-carboxamide]
- remaining binding at 0.3 µM (BIKE): 100%
- remaining binding at 0.3 µM (CAMK2G): 97%
- remaining binding at 0.3 µM (CDC2L1): 100%
- remaining binding at 0.3 µM (CDC2L2): 98%
- remaining binding at 0.3 µM (CDK7): 100%
- remaining binding at 0.3 µM (CDKL2): 100%
- remaining binding at 0.3 µM (CSNK1G1): 79%
- remaining binding at 0.3 µM (CSNK1G2): 90%
- remaining binding at 0.3 µM (EPHA3): 100%
- remaining binding at 0.3 µM (ERK5): 98%
- remaining binding at 0.3 µM (KIT(V559D)): 100%
- remaining binding at 0.3 µM (LZK): 100%
- remaining binding at 0.3 µM (MAK): 98%
- remaining binding at 0.3 µM (MLK3): 97%
- remaining binding at 0.3 µM (PIK3C2B): 86%
- remaining binding at 0.3 µM (PIK3CA(E542K)): 100%
- remaining binding at 0.3 µM (PLK1): 100%
- remaining binding at 0.3 µM (PRKCE): 35%
- remaining binding at 0.3 µM (PRKG2): 48%
- remaining binding at 0.3 µM (SNARK): 74%
- remaining binding at 0.3 µM (TNNI3K): 95%
- remaining binding at 0.3 µM (ZAP70): 100%

SMILES: O=C(/C=C/c1cnccc1-c1ccc(F)cc1)Nc1ccc(CCc2nnco2)cc1 [T-418, (2E)-3-(4-(4-fluorophenyl)pyridin-3-yl)-N-(4-(2-(1,3,4-oxadiazol-2-yl)ethyl)phenyl)acrylamide]
- remaining binding at 0.3 µM (BIKE; sheet T-418): 97%
- remaining binding at 0.3 µM (CAMK2G; sheet T-418): 94%
- remaining binding at 0.3 µM (CDC2L1; sheet T-418): 92%
- remaining binding at 0.3 µM (CDC2L2; sheet T-418): 100%
- remaining binding at 0.3 µM (CDK7; sheet T-418): 100%
- remaining binding at 0.3 µM (CDKL2; sheet T-418): 100%
- remaining binding at 0.3 µM (CSNK1G1; sheet T-418): 97%
- remaining binding at 0.3 µM (CSNK1G2; sheet T-418): 100%
- remaining binding at 0.3 µM (EPHA3; sheet T-418): 100%
- remaining binding at 0.3 µM (ERK5; sheet T-418): 75%
- remaining binding at 0.3 µM (KIT(V559D); sheet T-418): 100%
- remaining binding at 0.3 µM (LZK; sheet T-418): 96%
- remaining binding at 0.3 µM (MAK; sheet T-418): 100%
- remaining binding at 0.3 µM (MLK3; sheet T-418): 94%
- remaining binding at 0.3 µM (PIK3C2B; sheet T-418): 88%
- remaining binding at 0.3 µM (PIK3CA(E542K); sheet T-418): 100%
- remaining binding at 0.3 µM (PLK1; sheet T-418): 100%
- remaining binding at 0.3 µM (PRKCE; sheet T-418): 39%
- remaining binding at 0.3 µM (PRKG2; sheet T-418): 49%
- remaining binding at 0.3 µM (SNARK; sheet T-418): 60%
- remaining binding at 0.3 µM (TNNI3K; sheet T-418): 100%
- remaining binding at 0.3 µM (ZAP70; sheet T-418): 86%
